Key:
hMagT1 (human MagT1) [1] = biological target: T1, hMagT1 (human MagT1) (Homo sapiens, UniProt Q9H0U3); assay: two-microelectrode voltage clamp, Xenopus oocytes, Mg2+-evoked current; type: cell-based; details: 10 μM compound, -125 mV, n = 5; activator; control current 0.59 ± 0.09 μA
T1 construct: full-length ORF, 335 residues, 38,036 Da; subcloned in pEYFP-N1, cRNA injected in Xenopus laevis oocytes; no fusion tag stated
T1 sequence (Q9H0U3 30-335): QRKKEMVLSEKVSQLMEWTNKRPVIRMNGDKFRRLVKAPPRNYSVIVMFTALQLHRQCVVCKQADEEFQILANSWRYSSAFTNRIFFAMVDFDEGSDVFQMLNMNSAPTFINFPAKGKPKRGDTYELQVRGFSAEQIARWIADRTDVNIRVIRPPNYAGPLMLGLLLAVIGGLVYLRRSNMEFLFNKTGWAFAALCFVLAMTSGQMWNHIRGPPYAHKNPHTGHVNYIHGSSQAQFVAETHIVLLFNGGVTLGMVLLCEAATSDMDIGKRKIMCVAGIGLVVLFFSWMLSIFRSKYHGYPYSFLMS

hMagT1 (human MagT1) [2] = biological target: T1, hMagT1 (human MagT1); assay: as above; type: cell-based; details: 10 μM compound, -125 mV, n = 7; inhibitor; control current 0.59 ± 0.09 μA

Structure (SMILES): COC(=O)C1=C(C)NC(C)=C([N+](=O)[O-])C1c1ccccc1C(F)(F)F (centres unmarked) [BAY K8644]
- current at 10 μM (hMagT1 (human MagT1) [1]): 0.80 ± 0.18 μA

Structure (SMILES): CCOC(=O)C1=C(C)NC(C)=C(C(=O)OC)C1c1cccc([N+](=O)[O-])c1 (centres unmarked) [nitrendipine]
- residual current at 10 μM (hMagT1 (human MagT1) [2]): 0.15 ± 0.02 μA

From publication PMC1129089, “Identification and characterization of a novel mammalian Mg^2+ transporter with channel-like properties” (BMC Genomics, 2005)
